Values quoted from earlier work, collected in patent US9370540B2, “K2 composition and the preparation method and use of the same” (SINPHAR PHARMACEUTICAL CO., LTD., priority 2014, dated 2016).

Tested on: A549 cells
Settings: from Molecular Carcinogenesis papers

C=C(CC[C@@H](C(=O)O)[C@H]1[C@H](O)C[C@@]2(C)C3=CC[C@H]4C(C)(C)C(=O)CC[C@]4(C)C3=CC[C@]12C)C(C)C [polyporenic acid C]
IC50, inhibiting the growth of lung cancer cells: about 15 μg/ml
